Our source for the EC50 values is patent publication US20230045421A1 (priority 2018, published 2023).

Structures are written as SMILES.

In the first assay the test system is HBV rcDNA. Description: HepDE19 assay with bDNA quantitation of HBV rcDNA. Format: cell-based, hepatitis B virus. The conditions noted are these: HepDE19 assay, inhibition of formation of relaxed circular DNA (rcDNA), bDNA quantitation; read-out: DE-19bDNA EC50. The gist of the method: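 Compounds, top concentration 25 μM in 8-point duplicate series, were applied to Tet-free HepDE19 cultures for 7 days. Branched-DNA quantitation of HBV rcDNA against untreated wells gave EC50 and EC90 by 4-parameter fit. Viability (CC50) came from ATP luminescence on parallel plates incubated 4 days.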
For the compound `CC(c1c[nH]c(=O)c2cc(F)c(F)cc12)N(CCS(N)(=O)=O)C(=O)Nc1ccc(F)cc1` (single isomer, unassigned) [Compound 387, 2-(1-(1-(6,7-Difluoro-1-oxo-1,2-dihydroisoquinolin-4-yl)ethyl)-3-(4-fluorophenyl)ureido)ethane-1-sulfonamide], the EC50 (usually the concentration giving half of the maximal effect) came to 40 nM.
Still for that read-out and setting: as for `CC(c1c[nH]c(=O)c2c(F)cc(F)cc12)N(CCS(N)(=O)=O)C(=O)Nc1ccc(F)c(Cl)c1` (single isomer, unassigned) [Compound 389, 2-(3-(3-Chloro-4-fluorophenyl)-1-(1-(6,8-difluoro-1-oxo-1,2-dihydroisoquinolin-4-yl)ethyl)ureido) ethane-1-sulfonamide], the figure is 3300 nM; as for `CC(c1c[nH]c(=O)c2c(F)cc(F)cc12)N(CCS(N)(=O)=O)C(=O)Nc1ccc(F)c(Cl)c1` (single isomer, unassigned) [Compound 390, 2-(3-(3-Chloro-4-fluorophenyl)-1-(1-(6,8-difluoro-1-oxo-1,2-dihydroisoquinolin-4-yl)ethyl)ureido) ethane-1-sulfonamide], 17 nM.
Same read-out and setting: as for `CC(c1c[nH]c(=O)c2c(F)c(F)ccc12)N(CCS(N)(=O)=O)C(=O)Nc1ccc(F)c(Cl)c1` (single isomer, unassigned) [Compound 391, 2-(3-(3-Chloro-4-fluorophenyl)-1-(1-(7,8-difluoro-1-oxo-1,2-dihydroisoquinolin-4-yl)ethyl)ureido) ethane-1-sulfonamide], the figure is 2900 nM.
On the same count and under the same terms, as for `CC(c1c[nH]c(=O)c2c(F)c(F)ccc12)N(CCS(N)(=O)=O)C(=O)Nc1ccc(F)c(Cl)c1` (single isomer, unassigned) [Compound 392, 2-(3-(3-Chloro-4-fluorophenyl)-1-(1-(7,8-difluoro-1-oxo-1,2-dihydroisoquinolin-4-yl)ethyl)ureido) ethane-1-sulfonamide], the figure is 26 nM; as for `CC(c1c[nH]c(=O)c2c(F)c(F)ccc12)N(CCS(N)(=O)=O)C(=O)Nc1ccc(F)cc1` (single isomer, unassigned) [Compound 394, 2-(1-(1-(7,8-Difluoro-1-oxo-1,2-dihydroisoquinolin-4-yl)ethyl)-3-(4-fluorophenyl)ureido)ethane-1-sulfonamide], 10000 nM; as for `CC(c1c[nH]c(=O)c2c(F)c(F)ccc12)N(CCS(N)(=O)=O)C(=O)Nc1ccc(F)cc1` (single isomer, unassigned) [Compound 395, 2-(1-(1-(7,8-Difluoro-1-oxo-1,2-dihydroisoquinolin-4-yl)ethyl)-3-(4-fluorophenyl)ureido)ethane-1-sulfonamide], 300 nM.
Regarding `CC(c1c[nH]c(=O)c2c(F)cccc12)N(CCS(N)(=O)=O)C(=O)Nc1ccc(F)c(Cl)c1` (single isomer, unassigned) [Compound 397, 2-(3-(3-Chloro-4-fluorophenyl)-1-(1-(8-fluoro-1-oxo-1,2-dihydroisoquinolin-4-yl)ethyl)ureido) ethane-1-sulfonamide], the EC50 is 100 nM.
Same read-out and setting: as for `CCN(C(=O)Nc1ccc(F)cc1)C(C)c1c[nH]c(=O)c2cc(F)c(F)cc12` (single isomer, unassigned) [Compound 402, 1-(1-(6,7-Difluoro-1-oxo-1,2-dihydroisoquinolin-4-yl)ethyl)-1-ethyl-3-(4-fluorophenyl)urea], the figure is 10000 nM.
Same read-out and setting: as for `CCN(C(=O)Nc1ccc(F)cc1)C(C)c1c[nH]c(=O)c2cc(F)c(F)cc12` (single isomer, unassigned) [Compound 403, 1-(1-(6,7-Difluoro-1-oxo-1,2-dihydroisoquinolin-4-yl)ethyl)-1-ethyl-3-(4-fluorophenyl)urea], the figure is 28 nM; as for `CCN(C(=O)Nc1ccc(F)c(Cl)c1)C(C)c1c[nH]c(=O)c2cc(F)c(F)cc12` (single isomer, unassigned) [Compound 406, 3-(3-Chloro-4-fluorophenyl)-1-(1-(6,7-difluoro-1-oxo-1,2-dihydroisoquinolin-4-yl)ethyl)-1-ethylurea], 2100 nM.
The same measure, in the same setting: as for `CCN(C(=O)Nc1ccc(F)c(Cl)c1)C(C)c1c[nH]c(=O)c2cc(F)c(F)cc12` (single isomer, unassigned) [Compound 407, 3-(3-Chloro-4-fluorophenyl)-1-(1-(6,7-difluoro-1-oxo-1,2-dihydroisoquinolin-4-yl)ethyl)-1-ethylurea], the figure is 6 nM; as for `CC(c1c[nH]c(=O)c2cc(F)c(F)cc12)N(C)C(=O)Nc1ccc(F)c(F)c1` (single isomer, unassigned) [Compound 408, 1-(1-(6,7-Difluoro-1-oxo-1,2-dihydroisoquinolin-4-yl)ethyl)-3-(3,4-difluorophenyl)-1-methylurea], 3400 nM.
In the case of `CC(c1c[nH]c(=O)c2cc(F)c(F)cc12)N(C)C(=O)Nc1ccc(F)c(F)c1` (single isomer, unassigned) [Compound 409, 1-(1-(6,7-Difluoro-1-oxo-1,2-dihydroisoquinolin-4-yl)ethyl)-3-(3,4-difluorophenyl)-1-methylurea], the EC50 is 13 nM.
The same measure, in the same setting: as for `CC(c1c[nH]c(=O)c2cc(F)c(F)cc12)N(C)C(=O)Nc1cc(F)c(F)c(F)c1` (single isomer, unassigned) [Compound 414, 1-(1-(6,7-Difluoro-1-oxo-1,2-dihydroisoquinolin-4-yl)ethyl)-3-(3,4,5-trifluorophenyl)-1-methylurea], the figure is 4800 nM; as for `CC(c1c[nH]c(=O)c2cc(F)c(F)cc12)N(C)C(=O)Nc1cc(F)c(F)c(F)c1` (single isomer, unassigned) [Compound 415, 1-(1-(6,7-Difluoro-1-oxo-1,2-dihydroisoquinolin-4-yl)ethyl)-3-(3,4,5-trifluorophenyl)-1-methylurea], 21 nM; as for `CC(c1c[nH]c(=O)c2cc(F)c(F)cc12)N(C)C(=O)Nc1ccnc(Cl)c1` (single isomer, unassigned) [Compound 418, 3-(2-Chloropyridin-4-yl)-1-(1-(6,7-difluoro-1-oxo-1,2-dihydroisoquinolin-4-yl)ethyl)-1-methylurea], 10000 nM.

Still in this assay, the particulars now being: read-out: DE-19bDNA EC50; HepDE19 assay, inhibition of formation of relaxed circular DNA (rcDNA), bDNA quantitation.
On to `CC(c1c[nH]c(=O)c2cc(F)c(F)cc12)N(C)C(=O)Nc1ccccc1` (single isomer, unassigned) [Compound 398, 1-(1-(6,7-Difluoro-1-oxo-1,2-dihydroisoquinolin-4-yl)ethyl)-1-methyl-3-phenylurea], for which the EC50 is 16000 nM.
Still for that read-out and setting: as for `CC(c1c[nH]c(=O)c2cc(F)c(F)cc12)N(C)C(=O)Nc1ccccc1` (single isomer, unassigned) [Compound 399, 1-(1-(6,7-Difluoro-1-oxo-1,2-dihydroisoquinolin-4-yl)ethyl)-1-methyl-3-phenylurea], the figure is 110 nM; as for `CC(c1c[nH]c(=O)c2cc(F)c(F)cc12)N(C)C(=O)Nc1ccc(Cl)cc1` (single isomer, unassigned) [Compound 400, 3-(4-Chlorophenyl)-1-(1-(6,7-difluoro-1-oxo-1,2-dihydroisoquinolin-4-yl)ethyl)-1-methylurea], 7200 nM.
As for `CC(c1c[nH]c(=O)c2cc(F)c(F)cc12)N(C)C(=O)Nc1ccc(Cl)cc1` (single isomer, unassigned) [Compound 401, 3-(4-Chlorophenyl)-1-(1-(6,7-difluoro-1-oxo-1,2-dihydroisoquinolin-4-yl)ethyl)-1-methylurea], the 50% effective concentration (EC50) was 90 nM.
Same read-out and setting: as for `CCN(C(=O)Nc1ccccc1)C(C)c1c[nH]c(=O)c2cc(F)c(F)cc12` (single isomer, unassigned) [Compound 404, 1-(1-(6,7-Difluoro-1-oxo-1,2-dihydroisoquinolin-4-yl)ethyl)-1-ethyl-3-phenylurea], the figure is 18000 nM; as for `CCN(C(=O)Nc1ccccc1)C(C)c1c[nH]c(=O)c2cc(F)c(F)cc12` (single isomer, unassigned) [Compound 405, 1-(1-(6,7-Difluoro-1-oxo-1,2-dihydroisoquinolin-4-yl)ethyl)-1-ethyl-3-phenylurea], 58 nM.
`CC(c1c[nH]c(=O)c2cc(F)c(F)cc12)N(C)C(=O)Nc1cccc(F)c1` (single isomer, unassigned) [Compound 410, 1-(1-(6,7-Difluoro-1-oxo-1,2-dihydroisoquinolin-4-yl)ethyl)-3-(3-fluorophenyl)-1-methylurea]: the EC50 came to 2800 nM.
Still for that read-out and setting: as for `CC(c1c[nH]c(=O)c2cc(F)c(F)cc12)N(C)C(=O)Nc1cccc(F)c1` (single isomer, unassigned) [Compound 411, 1-(1-(6,7-Difluoro-1-oxo-1,2-dihydroisoquinolin-4-yl)ethyl)-3-(3-fluorophenyl)-1-methylurea], the figure is 37 nM; as for `CC(c1c[nH]c(=O)c2cc(F)c(F)cc12)N(C)C(=O)Nc1cccc(Cl)c1` (single isomer, unassigned) [Compound 412, 1-(1-(6,7-Difluoro-1-oxo-1,2-dihydroisoquinolin-4-yl)ethyl)-3-(3-chlorophenyl)-1-methylurea], 1900 nM; as for `CC(c1c[nH]c(=O)c2cc(F)c(F)cc12)N(C)C(=O)Nc1cccc(Cl)c1` (single isomer, unassigned) [Compound 413, 1-(1-(6,7-Difluoro-1-oxo-1,2-dihydroisoquinolin-4-yl)ethyl)-3-(3-chlorophenyl)-1-methylurea], 18 nM.
Same read-out and setting: as for `CC(c1c[nH]c(=O)c2cc(F)c(F)cc12)N(C)C(=O)Nc1cc(Cl)cc(Cl)c1` (single isomer, unassigned) [Compound 416, 3-(3,5-Dichlorophenyl)-1-(1-(6,7-difluoro-1-oxo-1,2-dihydroisoquinolin-4-yl)ethyl)-1-methylurea], the figure is 10000 nM; as for `CC(c1c[nH]c(=O)c2cc(F)c(F)cc12)N(C)C(=O)Nc1cc(Cl)cc(Cl)c1` (single isomer, unassigned) [Compound 417, 3-(3,5-Dichlorophenyl)-1-(1-(6,7-difluoro-1-oxo-1,2-dihydroisoquinolin-4-yl)ethyl)-1-methylurea], 140 nM.
